From article PMC12051620, “Molecular basis underlying the specificity of an antagonist AA92593 for mammalian melanopsins” (The Journal of Biological Chemistry, 2025)
“Also recorded” adds a separate entry of the source.

Columns and labels:
Assay type in all cases: cell-based
[1] = biological target: T1, human melanopsin F94^2.61C/S188^ECL2T/W189^ECL2F/S269^6.52A mutant (Homo sapiens, UniProt Q9UHM6, F127C/S222T/S313A/W223F); assay: NanoBiT Gq dissociation assay using Gqα/R183Q-LgBiT; details: 1.67 and 16.7 μM AA92593; COS-1 cells
T1 construct: expressed in transfected cells; host or cells: COS-1
Description: (§1) As described above, we have assessed the inhibitory effect of AA92593 using the GsX GloSensor assay. To confirm whether an antagonistic effect could be observed in another experimental system, we used the NanoBiT G protein dissociation assay ([23]). In this assay, Gq activation (dissociation) is detected as a decrease in NanoLuc luminescence from the Lg-BiT fragment inserted with Gqα and the Sm-BiT fragment fused with Gβγ (see “Experimental procedures”) ([23], [24]). If an antagonistic effect is observed in the NanoBiT assay, the light-dependent decrease in luminescence (Gq dissociation) by melanopsin would be reduced in the presence of AA92593. […] A recent study reported that the introduction of a GTPase-deficient substitution, R183Q, on Gqα increased GPCR-induced Gq dissociation signals in a BRET-based biosensor assay, TRUPATH ([25]). […]
(§2) For GloSensor assay, opsins, GloSensor assay sensor (coded by pGlo-22F), and NanoBiT-tagged G proteins were transiently expressed in COS-1 cells (kindly provided from Dr David Farrens, Oregon Health and Science University) using PEI as described previously ([24], [52]). […] For GFP-fluorescence microscopy, a 35-mm cell culture dish (IWAKI) was transfected with 2 μg melanopsin-GFP plasmid and 8 μg PEI in 400 μl Opti-mem and 1.2 ml D-MEM. […]
(§3) The transfected COS-1 cells were incubated at 37 °C, 5% CO2 for 1 day, and the medium was aspirated, followed by the addition of 50 μl of HBSS containing 33.3, 3.33, or 0 μM AA92593, 0.5% DMSO, and 10 μM coelenterazine h (Wako). […] After incubation of the cells, luminescence measurement was interrupted, the plate was ejected, and the cells were added 50 μl of HBSS containing 0.2 μM 9-cis-retinal. […] Luminescence was measured using GM-2000 or GM-3510 microplate reader (Promega). Luminescence level of each well was measured every 18 s with integration time of 0.3 s. To illuminate opsins, luminescence measurement was interrupted, the plate was ejected, and the plate was illuminated by white light with CN-160 LED video light (light intensity, ∼9 mW/cm^2) (NEEWER). After illumination, luminescence measurement was resumed. […]

human melanopsin WT = biological target: T2, human melanopsin WT (Homo sapiens, UniProt Q9UHM6); assay: as above; details: 1.67 and 16.7 μM AA92593; COS-1 cells; concentration-dependent
T2 construct: expressed in transfected cells; host or cells: COS-1
T2 sequence (Q9UHM6 1-384 limits assumed): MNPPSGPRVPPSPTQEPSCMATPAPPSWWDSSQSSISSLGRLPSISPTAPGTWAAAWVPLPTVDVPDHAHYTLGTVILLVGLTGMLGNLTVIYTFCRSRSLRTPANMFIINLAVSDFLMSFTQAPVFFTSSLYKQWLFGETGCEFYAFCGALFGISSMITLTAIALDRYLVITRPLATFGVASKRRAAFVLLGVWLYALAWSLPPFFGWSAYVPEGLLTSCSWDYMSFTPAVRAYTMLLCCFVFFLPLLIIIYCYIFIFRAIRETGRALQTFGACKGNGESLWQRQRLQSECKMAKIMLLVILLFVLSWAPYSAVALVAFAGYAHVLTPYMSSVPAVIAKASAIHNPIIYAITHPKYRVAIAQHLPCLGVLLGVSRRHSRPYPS
Description: as §1, §2, §3

[2] = biological target: T3, human melanopsin F94^2.61C/S188^ECL2T/S269^6.52A mutant (Homo sapiens, UniProt Q9UHM6, F127C/S222T/S313A); assay: as above; details: 1.67 and 16.7 μM AA92593; COS-1 cells
T3 construct: expressed in transfected cells; host or cells: COS-1
Description: as §1, §2, §3

human melanopsin = biological target: T4, human melanopsin (Homo sapiens, UniProt Q9UHM6); assay: GloSensor cAMP assay via endogenous G proteins; set-up: the C-terminal amino acid residues (94, 140, 200, 214, 296, and 308 residues); expressed in transfected cells; host or cells: COS-1; details: COS-1 cells, no exogenous G protein
T4 sequence (Q9UHM6 1-384 limits assumed): T2 sequence (Q9UHM6 1-384 limits assumed)

T3 sequence (Q9UHM6 1-384 F127C/S222T/S313A): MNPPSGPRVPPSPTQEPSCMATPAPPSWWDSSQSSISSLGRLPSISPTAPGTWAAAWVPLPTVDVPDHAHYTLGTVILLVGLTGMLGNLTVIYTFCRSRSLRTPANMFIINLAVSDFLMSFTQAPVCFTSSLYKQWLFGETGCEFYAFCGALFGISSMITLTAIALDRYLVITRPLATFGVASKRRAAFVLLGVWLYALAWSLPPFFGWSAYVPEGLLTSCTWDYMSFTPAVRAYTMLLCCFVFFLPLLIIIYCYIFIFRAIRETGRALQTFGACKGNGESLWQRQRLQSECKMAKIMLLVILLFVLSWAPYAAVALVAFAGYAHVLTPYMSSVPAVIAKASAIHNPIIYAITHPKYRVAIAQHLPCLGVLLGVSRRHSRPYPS
T1 sequence (Q9UHM6 1-384 F127C/S222T/W223F/S313A): as the sequence (Q9UHM6 1-384 F127C/S222T/S313A) above, with W223F counted along it

COc1ccc(S(=O)(=O)N2CCCCC2)cc1C [AA92593]
sensitivity to AA92593 in Gq dissociation [1]: little sensitivity | effect on light-dependent decrease in NanoLuc luminescence (Gq dissociation) (human melanopsin WT): weakened | AA92593-dependent inhibitory effect on Gq activation compared to WT [2]: much reduced; also recorded: almost insensitive | effect on endogenous G protein-induced cAMP responses (human melanopsin): inhibited
